These results are taken from patent US9920039B2, “1,2,4-Oxadiazol compounds active against gram-positive pathogens” (UNIVERSITÀ DEGLI STUDI DI MILANO—BICOCCA, priority 2013, dated 2018).

Series [1] concerns Staphylococcus aureus ATCC 29213. Description: MIC by broth microdilution (CLSI). The following applies: read-out: MIC. The class given is cell-based. The source says: (§1) Several well characterized for their antibiotic-susceptibility phenotype Staphylococcus aureus isolates were used for the determination of the in vitro antibacterial activity of the studied compounds. In particular, S. aureus ATCC 29213 reference standard strain and S. aureus M923 (collection strain) were used as MSSA strains. Among MRSA, S. aureus MU50 (ATCC 700699) reference standard strain and two collection strains (433 and F511) were used for susceptibility assays.
(§2) The in vitro antibacterial activity of the new agents was studied by determining their minimum inhibitory concentrations (MICs) by means of the broth microdilution method according to the Clinical and Laboratory Standards Institute (CLSI) guidelines.[16] Briefly, serial 2-fold dilutions of each compound were made using the Cation adjusted Mueller-Hinton broth (CAMHB) in microtitre plates with 96 wells. Dimethyl sulfoxide (DMSO) was used as solvent for all the synthesized compounds. An equal volume of the bacterial inoculum (1×10^6 CFU/mL) was added to each well on the microtitre plate containing 0.05 mL of the serial antibiotic dilutions. The microtitre plate was then incubated at 37° C. for 18-24 h after which each well was analysed for the presence of bacterial growth. The MIC was defined as the lowest concentration of antimicrobial agent able to cause inhibition of bacterial growth as shown by the lack of turbidity of the culture medium. […] Final DMSO concentrations were also taken into account in all the biological assays.
(§3) The antimicrobial activities, summarized in Table 2, were determined by the “gold standard” method of broth microdilution, as recommended by the Clinical Laboratory Standards Institute (CLSI) (See the Experimental Section). […] In detail, the bacterial strains were tested: Staphylococcus aureus ATCC 29213, a clinical strain of methicillin-susceptible S. aureus (M923), S. aureus MU50 (methicillin-resistant—MRSA), and two methicillin-resistant clinical strains, 433 and F511.
(§4) The antimicrobial activities, summarized in Table 3, were determined by the “gold standard” method of broth microdilution, as recommended by the Clinical Laboratory Standards Institute (CLSI) (See the Experimental Section). The minimum inhibitory concentration (MIC) values were expressed in μg/mL. […] In detail, the tested bacterial strains were: Staphylococcus aureus ATCC 29213, a clinical strain of methicillin-susceptible S. aureus (M923), S. aureus MU50 (methicillin-resistant—MRSA) strain, and two methicillin-resistant clinical strains, 433 and F511.

Another series concerns MRSA clinical strain 433. The series is described as follows: MIC by broth microdilution (CLSI). The class given is cell-based, Staphylococcus aureus. The following applies: Staphylococcus aureus; MRSA 433; racemic mixture; Table 2; read-out: MIC.
Excerpt: as §1, §2, §3, §4
On the technique in general: In broth dilution the organism is exposed to a series of concentrations in liquid medium.

In series [2] the test system is MRSA clinical strain F511. Description: MIC by broth microdilution (CLSI). In kind it is cell-based, Staphylococcus aureus. The following applies: Staphylococcus aureus, racemic mixture, Table 2, read-out: MIC.
Excerpt: as §1, §2, §3, §4

Series [3] concerns S. aureus MU50 (ATCC 700699), methicillin-resistant (MRSA). The series is described as follows: MIC by broth microdilution (CLSI). The class given is cell-based, Staphylococcus aureus. As to conditions: Staphylococcus aureus, racemic mixture, Table 2, read-out: MIC.
Excerpt: as §1, §2, §3, §4

For series [4], the system named is methicillin-susceptible S. aureus (M923). The series is described as follows: MIC by broth microdilution (CLSI). The class given is cell-based, Staphylococcus aureus. As to conditions: Staphylococcus aureus; MSSA M923; racemic mixture; Table 2; read-out: MIC.
Excerpt: as §1, §2, §3, §4

Series [5] deals with HaCaT (human keratinocytes) cells. The series is described as follows: Cell viability, MTT assay. The class given is cell-based. The following applies: P<0.01, FIG. 3. The method, then:
(§5) [17-19] HepG2 and HaCat cells were grown in Dulbecco's modified eagles medium (DMEM) whereas PK15 in DMEM/M199 (1:1). All media were supplemented with 10% heat inactivated foetal bovine serum (FBS), 2 mM L-glutamine, 100 units/mL penicillin and 100 μg/mL streptomycin. Cells were maintained at 37° C. in a 5% CO2 atmosphere. All reagents for cell culture were from Euroclone (Pero, Italy).
(§6) Cell viability was measured by the MTT assay.[20] Briefly, MTT [3-(4,5-Dimethylthiazol-2-yl)-2,5-diphenyltetrazolium bromide] stock solution (5 mg/mL) was added to each well to a final concentration of 1.2 mM, and cells were incubated for 1 hour and 30 minutes at 37° C. After removing MTT solution, the reaction was stopped by adding 90% ethanol. Resuspended cells were centrifuged 10 min at 800×g. The absorbance was measured with the multilabel Victor^3 spectrophotometer (Perkin Elmer, Turku, Finland) at wavelength of 570 nm. Data are means±S.E. of 3 separate experiments performed in triplicate.
(§7) Statistical significance was obtained with Student'st test in comparison with controls *=P≤0.05, **=P≤0.001. Data are means±S.E. of 3 separate experiments performed in triplicate.
(§8) Another control was DMSO used as solvent.
In general terms: Tetrazolium dyes change colour on reduction, which living cells bring about.

For series [6], the system named is HepG2 (human hepatocellular carcinoma) cells. Description: Cell viability, MTT assay. In kind it is cell-based. As to conditions: FIG. 4. On the procedure:
as §5, §6, §7, §8

Series [7] deals with PK15 (porcine kidney epithelial) cells. Description: Cell viability, MTT assay. The class given is cell-based. The following applies: 5-400 μg/mL, FIG. 2. On the procedure:
as §5, §6, §7, §8

Another series relates to ATCC E. faecalis 29212. The series is described as follows: MIC by broth microdilution (Table 5). In kind it is cell-based, Enterococcus faecalis. On the procedure:
Dimethyl sulfoxide (DMSO) was used as solvent for all the synthesized compounds. An equal volume of the bacterial inoculum (1×10^6 CFU/mL) was added to each well on the microtitre plate containing 0.05 mL of the serial antibiotic dilutions. The microtitre plate was then incubated at 37° C. for 18-24 h after which each well was analysed for the presence of bacterial growth. The MIC was defined as the lowest concentration of antimicrobial agent able to cause inhibition of bacterial growth as shown by the lack of turbidity of the culture medium. […] Final DMSO concentrations were also taken into account in all the biological assays.

Series [8] has as its system Linezolid-resistant S. epidermidis Strains 1-10. The series is described as follows: MIC by broth microdilution (Table 5). The class given is cell-based, Staphylococcus epidermidis.
Excerpt: as §2

Series [9] has as its system Linezolid-resistant S. hominis Strain 11. Description: MIC by broth microdilution (Table 5). In kind it is cell-based, Staphylococcus hominis. As to conditions: S. hominis Strain 11, linezolid-resistant.
Excerpt: as §2

Series [10] has as its system 11 Linezolid-resistant CoNS. Description: MIC summary on strain panel (Table 5). The class given is cell-based, Staphylococcus epidermidis, Staphylococcus hominis.
Excerpt: as §2

In series [11] the test system is 45 Linezolid-susceptible MRSA. Description: MIC summary on strain panel (Table 5). The class given is cell-based, Staphylococcus aureus.
Excerpt: In particular, eleven linezolid-resistant coagulase-negative staphylococci (CoNS) (ten S. epidermidis and one S. hominis) were investigated. The eleven linezolid-resistant strains were isolated in several hospital settings between 2010 and 2011 from positive blood cultures. For the […], recently isolated from patients with cystic fibrosis, showing different profiles of multi-resistance to different classes of antimicrobials, was used (Table 4 and 5).
as §2

In series [12] the test system is mitochondrial protein synthesis (OXPHOS complexes) in HepG2 cells. Description: Oxidative phosphorylation (OXPHOS) assay. An excerpt:
This assay (Nadaciva S. et al., 2010) is used to monitor the level of mitochondrial protein synthesis of some key proteins in the process of oxidative phosphorylation of eukaryotic cells, comparing it with the level of synthesis of mitochondrial proteins encoded by nuclear DNA. This study allows us to analyze the effects of A4bS on the proteins encoded by mitochondrial DNA (mtDNA).
The data represent the mean±SEM of three separate experiments performed in triplicate. Statistical significance is obtained by the Student's test compared to the […].

≈ marks a conversion by molar mass, not a printed value. Read-outs that look alike come from different tables or passages of the source. Some results are limits rather than exact numbers.

The MIC is the lowest concentration that inhibits growth of the organism. With `CC(=S)NCC1CN(c2ccc(-c3nc(C)no3)c(F)c2)C(=O)O1` (racemic) [Compound A4b, 3-(3′-fluoro-4′-(3″-methyl-1,2,4-oxadiazol-5-yl)-phenyl)-5-(N-thioacetylaminomethyl)-oxazolidin-2-one], the MIC in [1] (Staphylococcus aureus, ATCC29213, ATCC 29213, racemic mixture, Table 2) was 1.6 µg/mL (≈ 4.57 µM); with MRSA clinical strain 433, 0.8 µg/mL (≈ 2.28 µM); in [2], 1.6 µg/mL (≈ 4.57 µM); in series [3] it was at most 0.4 µg/mL; in series [4] it was 1.6 µg/mL (≈ 4.57 µM). The “concentration reaching statistically significant mortality compared to linezolid” value in [5] amounted to 400 µg/mL. In addition, in series [6], the “concentration from which a reduction in viability was shown” value was at least 50 µg/mL. In series [7], the reduction of viability entry was “less than 10%”.
As usually defined, the MIC50 is an inhibitory concentration at the 50% level, which refers to growth in some studies and to a panel of isolates in others. Broadly, the MIC90 is the lowest concentration that inhibits either 90% of growth or 90% of the strains tested, depending on the study. A lower MIC90 goes with higher susceptibility. As for `CC(=S)NC[C@H]1CN(c2ccc(-c3nc(C)no3)c(F)c2)C(=O)O1` [Compound A4bS], the MIC in [1] (ATCC S. aureus 29213, resolved enantiomers, Table 5) turned out to be 4 µg/mL (≈ 11.4 µM); in the series with ATCC E. faecalis 29212, 2 µg/mL (≈ 5.71 µM); in [8] (S. epidermidis Strain 1, linezolid-resistant), 8 µg/mL (≈ 22.8 µM); in series [8] (S. epidermidis Strain 2, linezolid-resistant), 8 µg/mL (≈ 22.8 µM); in series [8] (S. epidermidis Strain 3, linezolid-resistant), 4 µg/mL (≈ 11.4 µM); in series [8] (S. epidermidis Strain 4, linezolid-resistant), 4 µg/mL (≈ 11.4 µM). Besides, the MIC in series [8] (S. epidermidis Strain 5, linezolid-resistant) is 2 µg/mL (≈ 5.71 µM); in [8] (S. epidermidis Strain 6, linezolid-resistant) it was 4 µg/mL (≈ 11.4 µM); in series [8] (S. epidermidis Strain 7, linezolid-resistant), 8 µg/mL (≈ 22.8 µM); in series [8] (S. epidermidis Strain 8, linezolid-resistant), 2 µg/mL (≈ 5.71 µM); in [8] (S. epidermidis Strain 9, linezolid-resistant) it was 1 µg/mL (≈ 2.85 µM); in series [8] (S. epidermidis Strain 10, linezolid-resistant) it was 4 µg/mL (≈ 11.4 µM). In series [9], this compound showed an MIC of 4 µg/mL (≈ 11.4 µM). The MIC50 turned out to be 4 µg/mL (≈ 11.4 µM) in [10] (11 Linezolid-resistant CoNS) and 0.5 µg/mL (≈ 1.43 µM) in [11]. For the same compound, in [10] (11 Linezolid-resistant CoNS), the MIC90 is 8 µg/mL (≈ 22.8 µM). Further, in series [10] (linezolid-resistant Staphylococcus spp. strains), the “effect on linezolid resistance (in words)” value is given as “completely reversed resistance to linezolid into susceptibility”. Moreover, the “effect on proteins synthesized by mtDNA (in words)” value in [12] is “reduction of the synthesis of proteins of complex I and IV”.
